We go through four compounds from patent US20140057915A1, “KINASE INHIBITORS” (TOPIVERT PHARMA LIMITED, priority 2012, published 2014).

Molecules are shown by their SMILES. pIC50: −log10 of the molar value. Some results are limits rather than exact numbers.

One data set relates to d-U937 cells. The data set can be described thus: Cell viability: MTT assay. It counts as cell-based, human. The conditions noted are these: 1 μg/mL. In a few lines:
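MTT reduction (1 h, DMSO solubilisation, A550) measured after compound treatment at 1 or 10 μg/mL of differentiated U937 cells for 4 h (5% FCS RPMI1640) or 24 h (10% FCS). Percentage viability loss computed relative to 0.5% DMSO vehicle, with increases tabulated as negative values.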
In general terms: Formazan colour is commonly taken as a measure of viable cells.

In the next data set the test system is IL-8 release, HT29 cells. The data set can be described thus: IL-1β-induced IL-8 release in HT29 cells. The class given is cell-based. The conditions noted are these: Homo sapiens, HT-29; IL-1β stimulated; read-out: IC50 Values for Inhibition of Cytokine Release, HT29 cells, IL-8. How it is done: (d) IL-1β-Induced IL-8 Release in HT29 Cells
HT29 cells, a human colon adenocarcinoma cell line, are plated in a 96 well plate (24 hrs) and pre-treated with compounds at the desired concentration for 2 hours before addition of 5 ng/ml of IL-1β (Abeam) for 24 hours, Supernatants are harvested for IL-8 quantification by Sandwich ELISA (Duo-set, R&D System). The IC50 is determined from the dose response curve.

Data set [1] addresses T1, GSK3α (Homo sapiens, UniProt P49840). Put plainly: GSK 3α enzyme inhibition (FRET), Method 2. It counts as biochemical. The conditions noted are these: Table 4a2, different laboratory.
The target in data set [2] is T1, GSK3α. The data set can be described thus: GSK 3α enzyme inhibition (FRET), Method 1. It counts as biochemical. As to conditions: Table 4a1. In a few lines:
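Compounds are tested at added-solution levels of 4, 0.4, 0.04 or 0.004 μg/mL against GSK3α, with a 2 hr RT preincubation. Kinase reaction with FRET peptide and ATP (8 μM and 40 μM as added) runs 1 hr, and phosphorylation is judged by the protease-sensitive FRET ratio.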

For another data set, the target named is Syk (Homo sapiens, UniProt P43405). Put plainly: Syk enzyme inhibition (FRET). It counts as biochemical. Summed up: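 2 hr RT enzyme + cpd (added solns 4/0.4/0.04/0.004 μg/mL); + FRET peptide (8 μM soln) + ATP soln (c-Src 800 μM, Syk 60 μM), 1 hr; protease development 1 hr; read donor/acceptor emission ratio.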
The test system of the next data set is HRV16 in MRC5 cells. Put plainly: HRV16 induced CPE in MRC5 cells. It counts as cell-based. As to conditions: Human rhinovirus sp., HRV-16. On the procedure: (j) Assessment of HRV16 Induced CPE in MRC5 Cells
MRC-5 cells are infected with HRV16 at an MOI of 1n DMEM containing 5% FCS and 1.5 mM magnesium chloride, followed by incubation for 1 hr at 33° C. to promote adsorption. The supernatants are aspirated, and then fresh media added followed by incubation for 4 days. Where appropriate, cells are pre-incubated with compound or DMSO for 2 hr, and the compounds and DMSO added again after washout of the virus.
After washing, 1% SDS in distilled water (100 μL) is added to each well, and the plates are shaken lightly for 1-2 hr prior to reading the absorbance at 660 nm. The percentage inhibition for each well is calculated. The IC50 value is calculated from the concentration-response curve generated by the serial dilutions of the test compounds.

The subject of a further data set is IL-2 release, PBMCs. Put plainly: IL-2 release in CD3/CD28 stimulated PBMC cells. The conditions noted are these: Homo sapiens, read-out: IC50 Values for Inhibition of Cytokine Release, PBMCs, IL-2. The class given is cell-based.
The next data set has as its system IFN gamma release, PBMCs. The data set can be described thus: IFN gamma release in CD3/CD28 stimulated PBMC cells. The class given is cell-based. As to conditions: Homo sapiens, read-out: IC50 Values for Inhibition of Cytokine Release, PBMCs, IFNγ.
Setting [3] is: Table 4a2, different laboratory.

T1 sequence (P49840 whole entry): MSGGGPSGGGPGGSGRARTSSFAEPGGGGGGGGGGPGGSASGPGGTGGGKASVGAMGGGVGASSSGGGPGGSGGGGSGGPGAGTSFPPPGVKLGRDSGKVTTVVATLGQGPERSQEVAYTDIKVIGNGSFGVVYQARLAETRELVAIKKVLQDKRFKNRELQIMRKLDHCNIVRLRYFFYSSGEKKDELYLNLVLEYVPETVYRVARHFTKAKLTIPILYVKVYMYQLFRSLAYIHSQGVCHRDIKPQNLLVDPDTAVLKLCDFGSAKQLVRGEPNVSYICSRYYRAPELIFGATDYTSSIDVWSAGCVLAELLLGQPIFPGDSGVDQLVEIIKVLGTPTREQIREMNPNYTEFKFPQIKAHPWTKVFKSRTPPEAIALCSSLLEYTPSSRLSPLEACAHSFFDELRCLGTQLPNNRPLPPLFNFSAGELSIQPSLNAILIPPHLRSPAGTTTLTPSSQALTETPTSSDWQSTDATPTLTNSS

Broadly, the pIC50 is −log10 of the IC50, conventionally taken in molar units. Turning to `COc1cc(Nc2cc(Oc3ccc(NC(=O)Nc4cc(C(C)(C)C)nn4-c4ccc(C)cc4)c4ccccc34)ccn2)cc(C(=O)NCCN2CCOCC2)c1` [Example 1, 3-((4-((4-(3-(3-(tert-Butyl)-1-(p-tolyl)-1H-pyrazol-5-yl)ureido)naphthalen-1-yl)oxy)pyridin-2-yl)amino)-5-methoxy-N-(2-morpholinoethyl)benzamide], the “Cell viability at time point in d-U937 cells, 4 h” value in the data set with d-U937 cells was “−ve (−ve and +ve indicate that the value is below and above respectively, the no significant effect threshold, defined as 30% inhibition at 1 μg/mL at the time point indicated)”. In addition, in the data set on d-U937 cells, the “Cell viability at time point in d-U937 cells, 24 h” value (“Cell viability at time point … 24 h” for short) was “−ve (−ve and +ve indicate that the value is below and above respectively, the no significant effect threshold, defined as 30% inhibition at 1 μg/mL at the time point indicated)”. Moreover, the pIC50 in the data set on IL-8 release, HT29 cells was 7.99; against GSK3α [1], 5.16; at GSK3α [2], 5.54; at Syk (Table 4a1), 8.00; against Syk (setting [3]) it was 7.18; in the data set on HRV16 in MRC5 cells it was 8.54. The negative-log IC50 (pIC50) in the data set on IL-2 release, PBMCs was 7.07; in the data set on IFN gamma release, PBMCs, 8.52.

For the compound `COc1cc(Nc2nccc(Oc3ccc(NC(=O)Nc4cc(C(C)C)nn4-c4ccc(C)cc4)c4ccccc34)n2)cc(C(=O)NCCN2CCOCC2)c1` [Example 8, 3-((4-((4-(3-(3-Isopropyl-1-(p-tolyl)-1H-pyrazol-5-yl)ureido)naphthalen-1-yl)oxy)pyrimidin-2-yl)amino)-5-methoxy-N-(2-morpholinoethyl)benzamide], the “Cell viability at time point in d-U937 cells, 4 h” value in the data set on d-U937 cells is “−ve (−ve and +ve indicate that the value is below and above respectively, the no significant effect threshold, defined as 30% inhibition at 1 μg/mL at the time point indicated)”. In addition, the “Cell viability at time point … 24 h” value with d-U937 cells is “−ve (−ve and +ve indicate that the value is below and above respectively, the no significant effect threshold, defined as 30% inhibition at 1 μg/mL at the time point indicated)”. For the same compound, the negative logarithm of the IC50 (pIC50) in the data set with IL-8 release, HT29 cells was 8.39; at GSK3α [1], at most 4.88; against GSK3α [2], 5.10; at Syk (Table 4a1), 8.52; at Syk (setting [3]), 6.65; in the data set with HRV16 in MRC5 cells, 8.27. Moreover, the pIC50 in the data set on IL-2 release, PBMCs is 7.45.

As to `C#Cc1cc(Nc2nccc(Oc3ccc(NC(=O)Nc4cc(C(C)(C)C)nn4-c4ccc(N(C)C)cc4)c4ccccc34)n2)cc(C(=O)NCCN2CCOCC2)c1` [Example 80, 3-((4-((4-(3-(3-(tert-Butyl)-1-(4-(dimethylamino)phenyl)-1H-pyrazol-5-yl)ureido)naphthalen-1-yl)oxy)pyrimidin-2-yl)amino)-5-ethynyl-N-(2-morpholinoethyl)-benzamide], the pIC50 in the data set on IL-8 release, HT29 cells was 8.21; against GSK3α [1] it was at most 4.90; against Syk (setting [3]), 7.60; in the data set with IL-2 release, PBMCs, 8.64; in the data set with IFN gamma release, PBMCs, 8.74.

Turning to `C#Cc1cc(Nc2nccc(Oc3ccc(NC(=O)Nc4cc(C(C)C)nn4-c4ccc(C)cc4)c4ccccc34)n2)cc(C(=O)NCCN2CCOCC2)c1` [Example 46, 3-ethynyl-5-((4-((4-(3-(3-isopropyl-1-(p-tolyl)-1H-pyrazol-5-yl)ureido)naphthalen-1-yl)oxy)pyrimidin-2-yl)amino)-N-(2-morpholinoethyl)benzamide], the “Cell viability at time point in d-U937 cells, 4 h” value in the data set on d-U937 cells is “−ve (−ve and +ve indicate that the value is below and above respectively, the no significant effect threshold, defined as 30% inhibition at 1 μg/mL at the time point indicated)”. In addition, the “Cell viability at time point … 24 h” value in the data set with d-U937 cells was “−ve (−ve and +ve indicate that the value is below and above respectively, the no significant effect threshold, defined as 30% inhibition at 1 μg/mL at the time point indicated)”. Moreover, the negative logarithm of the IC50 (pIC50) is 8.27 with IL-8 release, HT29 cells; 4.95 against GSK3α [1]; 7.66 against Syk (setting [3]); 7.23 in the data set with IL-2 release, PBMCs; 8.57 in the data set with IFN gamma release, PBMCs.
